pIC50: −log10 of the molar value.
Tests used:
[1] = system: A431 (wild-type EGFR overexpressing) cells; test: Cell proliferation assay (MTS), A431; assay type: cell-based; conditions: Homo sapiens, A-431, 96 h exposure
Experimental: (§1) A431 (wild-type EGFR overexpressing) and H1975 (double-mutant overexpressing) cells were exposed to test compounds for 96 h and the cell proliferation was determined by the MTS method.

[2] = system: H1975 (double-mutant overexpressing) cells; test: Cell proliferation assay (MTS), H1975; assay type: cell-based; conditions: Homo sapiens, NCI-H1975, 96 h exposure
Experimental: as §1

Row | Compound | pIC50 [1] | pIC50 [2]
1 | C=CC(=O)Nc1cc(-c2c(-c3ccccc3)oc3ncnc(NCCc4ccc(O)cc4)c23)ccc1N1CCN(C)CC1 [Compound 36, N-[5-(4-{[2-(4-Hydroxyphenyl)ethyl]amino}-6-phenylfuro[2,3-d]pyrimidin-5-yl)-2-(4-methylpiperazin-1-yl)phenyl]prop-2-enamide] | 5.30 to 6.70 | 5.30 to 6.70
2 | C=CC(=O)Nc1cc(-c2c(-c3ccccc3)oc3ncnc(NCCc4ccc(O)cc4)c23)ccc1N(C)CCN(C)C [Compound 37, N-[2-{[2-(Dimethylamino)ethyl](methyl)amino}-5-(4-{[2-(4-hydroxyphenyl)ethyl]amino}-6-phenylfuro[2,3-d]pyrimidin-5-yl)phenyl]prop-2-enamide] | 5.30 to 6.70 | 5.30 to 6.70
3 | C=CC(=O)Nc1cc(-c2c(-c3ccccc3)oc3ncnc(NCCc4ccc(S(N)(=O)=O)cc4)c23)ccc1N(C)CCN(C)C [Compound 41, N-(5-[4-({2-[4-(Aminosulfonyl)phenyl]ethyl}amino)-6-phenylfuro-[2,3-d]pyrimidin-5-yl]-2-{[2-(dimethylamino)ethyl](methyl)amino}phenyl)prop-2-enamide] | 5.30 to 6.70 | > 6.70
4 | C=CC(=O)Nc1cc(-c2c(-c3ccccc3)oc3ncnc(Nc4ccccc4)c23)ccc1N(C)CCN(C)C [Compound 43, N-(2-{[2-(Dimethylamino)ethyl](methyl)amino}-5-[6-phenyl-4-(phenylamino)furo[2,3-d]pyrimidin-5-yl]phenyl)prop-2-enamide] | 5.30 to 6.70 | > 6.70
5 | C=CC(=O)Nc1cccc(-c2c(-c3ccccc3)oc3ncnc(N4CCC4)c23)c1 [Compound 61, N-{3-[4-(Azetidin-1-yl)-6-phenylfuro[2,3-d]pyrimidin-5-yl]phenyl}prop-2-enamide] | 5.30 to 6.70 | > 6.70

The next lines start with the values.

Row | pIC50 [1] | pIC50 [2] | Compound
6 | < 5.30 | 5.30 to 6.70 | C=CC(=O)Nc1cc(-c2c(-c3ccccc3)oc3ncnc(NC4CCCC4)c23)ccc1N1CC[C@@H](N(C)C)C1 [Compound 28, N-{5-[4-(Cyclopentylamino)-6-phenylfuro[2,3-d]pyrimidin-5-yl]-2-[(3R)-3-(dimethylamino)pyrrolidin-1-yl]phenyl}prop-2-enamide]
7 | < 5.30 | 5.30 to 6.70 | C=CC(=O)Nc1cc(-c2c(-c3ccccc3)oc3ncnc(NCCc4ccc(O)cc4)c23)ccc1N(C)CCN1CCN(C)CC1 [Compound 40, N-[5-(4-{[2-(4-Hydroxyphenyl)ethyl]amino}-6-phenylfuro[2,3-d]pyrimidin-5-yl)-2-{methyl [2-(4-methylpiperazin-1-yl)ethyl]amino}phenyl]prop-2-enamide]
8 | 5.30 to 6.70 | > 6.70 | C=CC(=O)Nc1cc(-c2c(-c3ccc(F)cc3)oc3ncnc(NC4CCCC4)c23)ccc1N(C)CCN(C)C [Compound 42, N-(5-[4-(Cyclopentylamino)-6-(4-fluorophenyl)furo[2,3-d]pyrimi-din-5-yl]-2-{[2-(dimethylamino)ethyl](methyl)amino}phenyl)prop-2-enamide]
9 | 5.30 to 6.70 | > 6.70 | C=CC(=O)Nc1cc(-c2c(-c3ccccc3)oc3ncnc(N[C@H]4CC[C@@H](O)CC4)c23)ccc1N(C)CCN(C)C [Compound 52, N-(2-{[2-(Dimethylamino)ethyl](methyl)amino}-5-{4-[(4-hydroxy-cyclohexyl)amino]-6-phenylfuro[2,3-d]pyrimidin-5-yl}phenyl)prop-2-enamide]
10 | 5.30 to 6.70 | > 6.70 | C=CC(=O)Nc1cc(-c2c(-c3ccccc3)oc3ncnc(N[C@@H]4CCCC[C@@H]4O)c23)ccc1N(C)CCN(C)C [Compound 53, N-[2-{[2-(Dimethylamino)ethyl](methyl)amino}-5-(4-{[(1R,2S)-2-hydroxycyclohexyl]amino}-6-phenylfuro[2,3-d]pyrimidin-5-yl)phenyl]prop-2-enamide]
11 | 5.30 to 6.70 | > 6.70 | C=CC(=O)Nc1cc(-c2c(-c3ccccc3)oc3ncnc(N[C@H]4CC[C@H](O)CC4)c23)ccc1N(C)CCN(C)C [Compound 55, N-(2-{[2-(Dimethylamino)ethyl](methyl)amino}-5-{4-[(4-hydroxy-cyclohexyl)amino]-6-phenylfuro[2,3-d]pyrimidin-5-yl}phenyl)prop-2-enamide]

— patent US20250243215A1, “INHIBITORS OF EPIDERMAL GROWTH FACTOR RECEPTOR” (National Health Research Institutes, priority 2024, published 2025)
